Some test systems named below: EKVX NSCLC; HCC-2998 colon; KM12 colon; OVCAR-5 ovarian; RPMI-8226 leukemia; SF-268 CNS; UACC-62 melanoma; OVCAR-3 ovarian; RXF 393 renal.
Common to all, as to assay: inhibition of tumour cell growth, NCI panel, 48 h

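Cells were grown in 96-well plates and exposed to each compound for 48 hours at five concentrations; endpoints were interpolated linearly between bracketing concentrations, or set to the highest concentration if not reached. Abbreviation: GI50, concentration required for 50% inhibition of growth. TGI: total growth inhibition.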

With `O=C(/C(=C/c1ccc(O)cc1)c1ccccc1)c1ccccc1`, the TGI turned out to be 45.8 µM in the assay on EKVX NSCLC; 32 µM in the assay on HCC-2998 colon; 29.1 µM with KM12 colon; 32 µM in the assay on OVCAR-5 ovarian; 42.3 µM in the assay with RPMI-8226 leukemia; 34.6 µM in the assay on SF-268 CNS. In the assay on UACC-62 melanoma, this molecule came in with a TGI of 27.1 µM.

With `[Cl-].[Gd+3].[O-]/N=C(\c1ccccc1)c1ccccn1.[O-]/N=C(\c1ccccc1)c1ccccn1.[O-]/N=C(\c1ccccc1)c1ccccn1`, the GI50 is 42.7 µM in the assay on EKVX NSCLC; 30.7 µM in the assay with HCC-2998 colon; 37.3 µM with KM12 colon; 21.3 µM in the assay on OVCAR-3 ovarian; 67.7 µM in the assay with OVCAR-5 ovarian; greater than 100 µM in the assay on RPMI-8226 leukemia. In addition, the GI50 in the assay with SF-268 CNS was 55.6 µM; in the assay with UACC-62 melanoma, 40.7 µM. Also, the TGI with EKVX NSCLC was greater than 100 µM; in the assay with HCC-2998 colon it was greater than 100 µM; in the assay with KM12 colon it was greater than 100 µM; with OVCAR-3 ovarian, 79.5 µM; with OVCAR-5 ovarian, greater than 100 µM; with RPMI-8226 leukemia it was greater than 100 µM. For the same molecule, the TGI in the assay on SF-268 CNS and in the assay with UACC-62 melanoma was greater than 100 µM throughout.

With `COC(=O)c1sc(=NC(=S)N2CCCCC2)sc1C(=O)OC`, the TGI in the assay on HCC-2998 colon is greater than 100 µM; in the assay on KM12 colon, greater than 100 µM; in the assay with OVCAR-3 ovarian, 34.2 µM; in the assay with RPMI-8226 leukemia it was greater than 100 µM; in the assay with RXF 393 renal, greater than 100 µM; in the assay on SF-268 CNS, greater than 100 µM. Besides, in the assay with UACC-62 melanoma, the TGI was greater than 100 µM.

Regarding `COC(=O)C1CCC(=O)N1/C(C)=N/NC(=O)Nc1ccc(Cl)c(Cl)c1` (stereo not given), the TGI with EKVX NSCLC, in the assay on HCC-2998 colon, in the assay with KM12 colon, in the assay with OVCAR-3 ovarian, with RPMI-8226 leukemia and with RXF 393 renal was greater than 100 µM in each case. For the same molecule, the TGI in the assay with SF-268 CNS and in the assay on UACC-62 melanoma was greater than 100 µM throughout.

For `c1ccc2c3c([nH]c2c1)C1C2CCCCN2C(c2ccncc2)N1CC3` (stereo not given), the TGI with EKVX NSCLC was greater than 100 µM; with KM12 colon, greater than 100 µM; in the assay with OVCAR-3 ovarian it was greater than 100 µM; in the assay on OVCAR-5 ovarian, greater than 100 µM; in the assay on RPMI-8226 leukemia it was 87.3 µM; in the assay on RXF 393 renal it was 83.4 µM. The same molecule returned a TGI with UACC-62 melanoma greater than 100 µM.

As for `N#CC(NC(=O)CCl)=C(Cl)Cl`, the GI50 was 1.85 µM in the assay on EKVX NSCLC; 1.89 µM in the assay on HCC-2998 colon; 1.88 µM in the assay on KM12 colon; 1.13 µM in the assay with OVCAR-3 ovarian; 1.96 µM in the assay on OVCAR-5 ovarian; 1.27 µM in the assay with RXF 393 renal. The results for the GI50 in the assay on SF-268 CNS and with UACC-62 melanoma were 1.97 µM and 1.34 µM, respectively. The TGI in the assay with EKVX NSCLC stood at 3.81 µM; in the assay on HCC-2998 colon, 3.41 µM; in the assay with KM12 colon it was 4.17 µM; in the assay with OVCAR-3 ovarian, 2.46 µM; with OVCAR-5 ovarian, 3.47 µM; in the assay on RXF 393 renal, 2.64 µM. Also, the TGI in the assay on SF-268 CNS was 4.66 µM; with UACC-62 melanoma, 2.69 µM.

Regarding `COC(=O)CC1CC2(C(=O)OC)c3[nH]c4ccccc4c3CCN2C1=O` (stereo not given), the TGI in the assay on EKVX NSCLC, with HCC-2998 colon, in the assay on KM12 colon, in the assay with OVCAR-3 ovarian, in the assay with OVCAR-5 ovarian and in the assay with RXF 393 renal was greater than 100 µM each time. For the same molecule, the TGI in the assay on SF-268 CNS and in the assay on UACC-62 melanoma was greater than 100 µM each time.

In the case of `O=c1cccccc1[O-].O=c1cccccc1[O-].O=c1cccccc1[O-].[Sm+3]`, the TGI in the assay with EKVX NSCLC was greater than 100 µM; with HCC-2998 colon, greater than 100 µM; with KM12 colon, greater than 100 µM; with OVCAR-3 ovarian, 47 µM; in the assay on OVCAR-5 ovarian it was greater than 100 µM; with RPMI-8226 leukemia, greater than 100 µM. Further, the TGI in the assay with RXF 393 renal was 53.6 µM; in the assay with UACC-62 melanoma, greater than 100 µM.

In the case of `CN(C)c1ccc(N=C2C=CC(=C(C#N)C#N)c3ccccc32)cc1`, the TGI in the assay on EKVX NSCLC worked out at 19.1 µM; with HCC-2998 colon, 0.63 µM; with KM12 colon, 12 µM; with OVCAR-3 ovarian it was 1.46 µM; in the assay on OVCAR-5 ovarian, 10.6 µM; with RPMI-8226 leukemia, 11.6 µM. In addition, the TGI in the assay on RXF 393 renal is 8.6 µM; in the assay on SF-268 CNS, 8.1 µM; in the assay on UACC-62 melanoma, 3.32 µM.

For `COC(=O)[C@]1(C)CCC[C@]2(C)[C@@H]1CCC13C[C@@H](C=CO1)[C@@H](C)CC32O` (stereo not given in full), the GI50 with EKVX NSCLC is 2.07 µM; in the assay with OVCAR-3 ovarian, 17.8 µM; in the assay with OVCAR-5 ovarian, greater than 100 µM; with RPMI-8226 leukemia it was 7.84 µM; with RXF 393 renal, 66.8 µM; in the assay with SF-268 CNS, greater than 100 µM. For the same molecule, the GI50 with UACC-62 melanoma was greater than 100 µM. The TGI is greater than 100 µM with EKVX NSCLC; 46.8 µM in the assay on OVCAR-3 ovarian; greater than 100 µM in the assay on OVCAR-5 ovarian; 82 µM in the assay on RPMI-8226 leukemia; greater than 100 µM in the assay with RXF 393 renal; greater than 100 µM with SF-268 CNS. For the same molecule, the TGI with UACC-62 melanoma was greater than 100 µM.

For the molecule `CC(=O)[O-].[Mn+3].[O-]c1ccc(Cl)cc1C=NCCN=Cc1cc(Cl)ccc1[O-]`, the GI50 was 66.3 µM in the assay with HCC-2998 colon; greater than 100 µM in the assay with KM12 colon; 37.6 µM in the assay with OVCAR-3 ovarian; greater than 100 µM in the assay on SF-268 CNS; greater than 100 µM with UACC-62 melanoma. Further, the TGI with HCC-2998 colon, in the assay on KM12 colon, with OVCAR-3 ovarian, with SF-268 CNS and with UACC-62 melanoma was greater than 100 µM throughout.

For `OCC#Cc1ccccc1C#Cc1ccc(C#Cc2ccccc2)cc1`, the GI50 with EKVX NSCLC was 25.2 µM; with KM12 colon, 17.3 µM; in the assay with OVCAR-3 ovarian it was 27.3 µM; with OVCAR-5 ovarian, 17.7 µM; in the assay on RPMI-8226 leukemia, 6.05 µM; with RXF 393 renal, 26.2 µM. Besides, the GI50 with SF-268 CNS is 23.7 µM; in the assay on UACC-62 melanoma, 19.9 µM. In addition, the TGI with EKVX NSCLC was 77.9 µM; with KM12 colon, 34.3 µM; in the assay on OVCAR-3 ovarian it was 48.7 µM; in the assay on OVCAR-5 ovarian, 34.9 µM; in the assay with RPMI-8226 leukemia, 22.2 µM; in the assay on RXF 393 renal it was 54.3 µM. In addition, the figures for the TGI in the assay on SF-268 CNS and with UACC-62 melanoma were greater than 100 µM and 36.1 µM, respectively.

Turning to `O=C1CNN=C(Cn2nc(-c3ccccc3)c3ccccc3c2=O)N1`, the TGI with HCC-2998 colon, in the assay with KM12 colon, in the assay on OVCAR-3 ovarian, with OVCAR-5 ovarian, with RPMI-8226 leukemia and in the assay on SF-268 CNS was greater than 100 µM in each case. The molecule further came in with a TGI with UACC-62 melanoma greater than 100 µM.

As to `O=C(/C=C(\[O-])c1ccccc1)CCCCCCC(=O)/C=C(\[O-])c1ccccc1.O=C(/C=C(\[O-])c1ccccc1)CCCCCCC(=O)/C=C(\[O-])c1ccccc1.O=C(/C=C(\[O-])c1ccccc1)CCCCCCC(=O)/C=C(\[O-])c1ccccc1.[Nd+3].[Nd+3]`, the GI50 in the assay with EKVX NSCLC was greater than 50 µM; with HCC-2998 colon, greater than 50 µM; in the assay with KM12 colon, greater than 50 µM; in the assay on OVCAR-3 ovarian it was greater than 50 µM; with OVCAR-5 ovarian, greater than 50 µM; in the assay with RPMI-8226 leukemia, 43.2 µM. The GI50 in the assay on SF-268 CNS and in the assay on UACC-62 melanoma was greater than 50 µM in each case. Further, the TGI in the assay with EKVX NSCLC, in the assay with HCC-2998 colon, with KM12 colon, in the assay on OVCAR-3 ovarian, with OVCAR-5 ovarian and in the assay with RPMI-8226 leukemia was greater than 50 µM throughout. Besides, the TGI with SF-268 CNS and in the assay on UACC-62 melanoma was greater than 50 µM each time.

As for `COCC1N=C(c2cc(OC)c(OC)c(OC)c2-c2cc3c(cc2[C@H](C)O)OCO3)O[C@H]1c1ccccc1` (stereo not given in full), the TGI in the assay on EKVX NSCLC, in the assay on HCC-2998 colon, with KM12 colon, in the assay with OVCAR-3 ovarian, in the assay with RPMI-8226 leukemia and in the assay on UACC-62 melanoma was greater than 100 µM each time.

Turning to `Nc1ncc(C2[C@H](CNC(=O)c3cc(Br)c[nH]3)C(CNC(=O)c3cc(Br)c[nH]3)[C@@H]2c2cnc(N)[nH]2)[nH]1` (stereo not given in full), the GI50 was 5.56 µM with EKVX NSCLC; greater than 50 µM in the assay with HCC-2998 colon; greater than 50 µM in the assay on KM12 colon; greater than 50 µM in the assay with OVCAR-3 ovarian; greater than 50 µM in the assay on OVCAR-5 ovarian; greater than 50 µM in the assay with RPMI-8226 leukemia. In addition, the GI50 with SF-268 CNS and in the assay with UACC-62 melanoma was greater than 50 µM throughout. In addition, the TGI in the assay on EKVX NSCLC is 45.6 µM; in the assay with HCC-2998 colon it was greater than 50 µM; with KM12 colon, greater than 50 µM; with OVCAR-3 ovarian, greater than 50 µM; in the assay with OVCAR-5 ovarian, greater than 50 µM; in the assay on RPMI-8226 leukemia, greater than 50 µM. In addition, the TGI in the assay with SF-268 CNS and with UACC-62 melanoma was greater than 50 µM each time.

Turning to `Nc1ccc(C(=O)/C=C/c2ccccc2O)cc1`, the TGI in the assay on EKVX NSCLC, with HCC-2998 colon, in the assay on KM12 colon, with OVCAR-3 ovarian, in the assay on OVCAR-5 ovarian and in the assay on RXF 393 renal was greater than 100 µM each time. Moreover, the TGI with SF-268 CNS and with UACC-62 melanoma was greater than 100 µM each time.

As to `COc1cc(CCc2ccc(OC(C)=O)cc2)cc(OC)c1OC`, the TGI in the assay on EKVX NSCLC, in the assay on KM12 colon, with OVCAR-3 ovarian, in the assay on OVCAR-5 ovarian, with RPMI-8226 leukemia and with RXF 393 renal was greater than 100 µM each time. Also, the TGI in the assay on SF-268 CNS and with UACC-62 melanoma was greater than 100 µM throughout.

On to `CN(C)c1ccc(O[Si](Oc2ccc(N(C)C)cc2)(Oc2ccc(N(C)C)cc2)Oc2ccc(N(C)C)cc2)cc1`, for which the TGI with EKVX NSCLC, with HCC-2998 colon, in the assay with KM12 colon, in the assay with OVCAR-3 ovarian, in the assay with OVCAR-5 ovarian and in the assay on RPMI-8226 leukemia was greater than 100 µM in each case. For the same molecule, the TGI in the assay with SF-268 CNS and in the assay on UACC-62 melanoma was greater than 100 µM throughout.

The values are drawn from PubChem BioAssay (NCI).
